Measurements taken from patent publication US10238612B2, “Transdermal administration of tamsulosin” (Corium International, Inc., priority 2009, dated 2019).

Experiment: Solubility of tamsulosin in DMSO and in mixtures of DMSO and water
Type: physicochemical
From the text: For example, dimethylsulfoxide (DMSO) may potentially be used. The table below gives some data on the solubility of tamsulosin in DMSO and in mixtures of DMSO and water: […]

Solubility of Tamsulosin (Water in DMSO 0 w/w %): 230 mg/g
Solubility of Tamsulosin (w/w %) (Water in DMSO 0 w/w %): 23.0 w/w %
Solubility of Tamsulosin (Water in DMSO 8.85 w/w %): 72.9 mg/g
Solubility of Tamsulosin (w/w %) (Water in DMSO 8.85 w/w %): 7.29 w/w %
Solubility of Tamsulosin (Water in DMSO 16.85 w/w %): 30.2 mg/g
Solubility of Tamsulosin (w/w %) (Water in DMSO 16.85 w/w %): 3.02 w/w %
Solubility of Tamsulosin (w/w %) (Water in DMSO 29.19 w/w %): 0.52 w/w %
SMILES: CCOc1ccccc1OCCN[C@H](C)Cc1ccc(OC)c(S(N)(=O)=O)c1 [Tamsulosin, 5-[2-[[2-(2-ethoxyphenoxy)ethyl]amino]propyl]-2-methoxy-benzenesulfonamide]
